Experiment [1] concerns the target Voltage-gated inwardly rectifying potassium channel KCNH2 (Homo sapiens, UniProt Q12809). The experiment in a line: Inhibition of human ERG expressed in HEK293 cells at -80 mV holding potential assessed as reduction in tail current amplitude by conventional patch clamp assay. Format: cell-based.
In experiment [2] the target is Nitric oxide synthase, inducible (Homo sapiens, UniProt P35228). The experiment in a line: Inhibition of human recombinant iNOS expressed in Sf9 cells assessed as reduction in conversion of [3H]L-arginine to [3H]L-citrulline preincubated for 15 mins by radiometric method.
The target of a further experiment is Nitric oxide synthase 1 (Homo sapiens, UniProt P29475). In words: Inhibition of human nNOS expressed in Sf9 cells assessed as reduction in conversion of [3H]L-arginine to [3H]L-citrulline preincubated for 15 mins by radiometric method.
Another experiment concerns the target T1, Nitric oxide synthase 3 (Homo sapiens, UniProt P29474).
T1 sequence (P29474 whole entry): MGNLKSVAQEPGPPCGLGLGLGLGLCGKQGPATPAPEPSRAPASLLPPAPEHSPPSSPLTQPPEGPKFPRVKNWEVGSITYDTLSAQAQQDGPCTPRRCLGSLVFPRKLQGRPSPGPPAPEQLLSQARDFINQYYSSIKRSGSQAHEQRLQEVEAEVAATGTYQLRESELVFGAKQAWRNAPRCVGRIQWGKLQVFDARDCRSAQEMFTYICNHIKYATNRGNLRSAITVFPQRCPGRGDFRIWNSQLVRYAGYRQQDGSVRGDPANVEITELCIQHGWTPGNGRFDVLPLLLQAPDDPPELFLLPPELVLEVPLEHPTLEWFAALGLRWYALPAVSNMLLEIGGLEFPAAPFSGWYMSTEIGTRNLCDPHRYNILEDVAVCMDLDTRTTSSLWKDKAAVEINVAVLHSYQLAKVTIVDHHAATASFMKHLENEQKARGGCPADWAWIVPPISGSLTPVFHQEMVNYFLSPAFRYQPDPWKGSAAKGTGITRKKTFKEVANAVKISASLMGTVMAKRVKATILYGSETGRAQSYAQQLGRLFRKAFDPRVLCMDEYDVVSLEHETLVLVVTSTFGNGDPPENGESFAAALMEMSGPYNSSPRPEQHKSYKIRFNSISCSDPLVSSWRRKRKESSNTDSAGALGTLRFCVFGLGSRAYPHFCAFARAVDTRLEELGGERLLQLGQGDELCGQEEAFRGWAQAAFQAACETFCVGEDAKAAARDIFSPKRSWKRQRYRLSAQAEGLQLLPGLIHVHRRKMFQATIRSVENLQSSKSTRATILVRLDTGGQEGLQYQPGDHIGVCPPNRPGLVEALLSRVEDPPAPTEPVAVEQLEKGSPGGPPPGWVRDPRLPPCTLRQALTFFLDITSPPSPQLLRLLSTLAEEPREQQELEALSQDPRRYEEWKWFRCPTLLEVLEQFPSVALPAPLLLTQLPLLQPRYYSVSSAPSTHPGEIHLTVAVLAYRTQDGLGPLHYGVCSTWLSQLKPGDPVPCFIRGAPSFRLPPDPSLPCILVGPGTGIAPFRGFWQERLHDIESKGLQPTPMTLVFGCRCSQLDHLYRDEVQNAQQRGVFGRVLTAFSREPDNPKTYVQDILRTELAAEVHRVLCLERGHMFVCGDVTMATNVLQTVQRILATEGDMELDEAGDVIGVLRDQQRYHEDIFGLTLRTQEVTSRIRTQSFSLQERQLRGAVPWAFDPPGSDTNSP
The experiment in a line: Inhibition of human eNOS expressed in Sf9 cells assessed as reduction in conversion of [3H]L-arginine to [3H]L-citrulline preincubated for 15 mins by radiometric method.

Sequence of Voltage-gated inwardly rectifying potassium channel KCNH2 (Q12809 whole entry): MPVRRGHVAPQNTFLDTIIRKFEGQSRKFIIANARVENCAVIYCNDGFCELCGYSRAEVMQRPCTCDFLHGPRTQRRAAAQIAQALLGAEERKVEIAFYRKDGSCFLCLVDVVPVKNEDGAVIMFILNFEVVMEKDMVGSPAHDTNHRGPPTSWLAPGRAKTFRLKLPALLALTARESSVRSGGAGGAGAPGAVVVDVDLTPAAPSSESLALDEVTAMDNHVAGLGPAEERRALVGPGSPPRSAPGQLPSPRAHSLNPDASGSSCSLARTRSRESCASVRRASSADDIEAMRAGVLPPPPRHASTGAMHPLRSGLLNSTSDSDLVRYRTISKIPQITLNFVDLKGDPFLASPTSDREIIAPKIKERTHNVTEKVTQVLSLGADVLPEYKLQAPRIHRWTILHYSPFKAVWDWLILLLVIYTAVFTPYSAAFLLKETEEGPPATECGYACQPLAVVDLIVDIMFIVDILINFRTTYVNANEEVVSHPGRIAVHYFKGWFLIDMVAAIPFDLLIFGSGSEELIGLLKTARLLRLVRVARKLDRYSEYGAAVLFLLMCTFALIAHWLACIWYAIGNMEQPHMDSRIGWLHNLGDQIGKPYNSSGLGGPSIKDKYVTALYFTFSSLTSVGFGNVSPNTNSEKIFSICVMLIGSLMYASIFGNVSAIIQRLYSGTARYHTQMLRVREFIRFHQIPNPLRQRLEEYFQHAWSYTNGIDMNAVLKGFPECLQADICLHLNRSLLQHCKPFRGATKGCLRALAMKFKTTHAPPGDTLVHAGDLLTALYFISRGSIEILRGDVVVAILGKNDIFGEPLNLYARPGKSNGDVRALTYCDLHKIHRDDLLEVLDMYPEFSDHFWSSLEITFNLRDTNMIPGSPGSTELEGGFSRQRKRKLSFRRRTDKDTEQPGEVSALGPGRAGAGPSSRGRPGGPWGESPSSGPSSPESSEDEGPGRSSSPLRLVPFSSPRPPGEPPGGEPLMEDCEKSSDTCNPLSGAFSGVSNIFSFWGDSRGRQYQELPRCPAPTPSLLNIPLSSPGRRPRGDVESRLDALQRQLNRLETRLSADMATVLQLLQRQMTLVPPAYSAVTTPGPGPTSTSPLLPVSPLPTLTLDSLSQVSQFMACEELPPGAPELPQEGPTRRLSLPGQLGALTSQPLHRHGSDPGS
Sequence of Nitric oxide synthase, inducible (P35228 whole entry): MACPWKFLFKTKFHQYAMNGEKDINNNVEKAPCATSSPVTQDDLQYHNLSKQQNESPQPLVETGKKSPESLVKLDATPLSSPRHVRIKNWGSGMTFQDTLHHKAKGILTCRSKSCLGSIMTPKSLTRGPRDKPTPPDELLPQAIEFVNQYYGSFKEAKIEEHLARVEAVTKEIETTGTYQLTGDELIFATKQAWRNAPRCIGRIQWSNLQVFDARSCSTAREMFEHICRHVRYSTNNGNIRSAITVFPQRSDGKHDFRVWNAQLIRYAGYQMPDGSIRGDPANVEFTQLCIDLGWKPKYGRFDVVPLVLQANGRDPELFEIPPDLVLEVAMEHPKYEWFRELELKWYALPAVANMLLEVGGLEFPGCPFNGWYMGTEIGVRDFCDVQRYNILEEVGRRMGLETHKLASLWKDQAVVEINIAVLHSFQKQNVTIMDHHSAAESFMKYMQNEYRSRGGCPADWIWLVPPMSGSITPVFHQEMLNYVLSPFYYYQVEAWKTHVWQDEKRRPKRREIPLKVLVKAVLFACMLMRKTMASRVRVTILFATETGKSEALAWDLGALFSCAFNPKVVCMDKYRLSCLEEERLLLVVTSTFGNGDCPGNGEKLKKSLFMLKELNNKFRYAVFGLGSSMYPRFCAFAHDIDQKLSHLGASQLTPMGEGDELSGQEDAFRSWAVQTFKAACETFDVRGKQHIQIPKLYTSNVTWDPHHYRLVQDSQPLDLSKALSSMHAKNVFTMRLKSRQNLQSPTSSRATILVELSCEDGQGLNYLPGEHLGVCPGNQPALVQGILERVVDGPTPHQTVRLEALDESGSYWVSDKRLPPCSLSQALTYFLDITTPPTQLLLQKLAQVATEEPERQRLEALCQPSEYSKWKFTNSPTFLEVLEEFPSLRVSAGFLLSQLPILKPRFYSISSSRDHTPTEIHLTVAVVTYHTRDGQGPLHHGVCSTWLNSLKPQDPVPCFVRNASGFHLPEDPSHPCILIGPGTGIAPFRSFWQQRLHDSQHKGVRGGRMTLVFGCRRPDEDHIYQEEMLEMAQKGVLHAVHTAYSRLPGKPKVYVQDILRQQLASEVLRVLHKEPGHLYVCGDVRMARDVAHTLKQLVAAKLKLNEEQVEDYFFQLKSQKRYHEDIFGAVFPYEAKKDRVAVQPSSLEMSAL
Sequence of Nitric oxide synthase 1 (P29475 whole entry): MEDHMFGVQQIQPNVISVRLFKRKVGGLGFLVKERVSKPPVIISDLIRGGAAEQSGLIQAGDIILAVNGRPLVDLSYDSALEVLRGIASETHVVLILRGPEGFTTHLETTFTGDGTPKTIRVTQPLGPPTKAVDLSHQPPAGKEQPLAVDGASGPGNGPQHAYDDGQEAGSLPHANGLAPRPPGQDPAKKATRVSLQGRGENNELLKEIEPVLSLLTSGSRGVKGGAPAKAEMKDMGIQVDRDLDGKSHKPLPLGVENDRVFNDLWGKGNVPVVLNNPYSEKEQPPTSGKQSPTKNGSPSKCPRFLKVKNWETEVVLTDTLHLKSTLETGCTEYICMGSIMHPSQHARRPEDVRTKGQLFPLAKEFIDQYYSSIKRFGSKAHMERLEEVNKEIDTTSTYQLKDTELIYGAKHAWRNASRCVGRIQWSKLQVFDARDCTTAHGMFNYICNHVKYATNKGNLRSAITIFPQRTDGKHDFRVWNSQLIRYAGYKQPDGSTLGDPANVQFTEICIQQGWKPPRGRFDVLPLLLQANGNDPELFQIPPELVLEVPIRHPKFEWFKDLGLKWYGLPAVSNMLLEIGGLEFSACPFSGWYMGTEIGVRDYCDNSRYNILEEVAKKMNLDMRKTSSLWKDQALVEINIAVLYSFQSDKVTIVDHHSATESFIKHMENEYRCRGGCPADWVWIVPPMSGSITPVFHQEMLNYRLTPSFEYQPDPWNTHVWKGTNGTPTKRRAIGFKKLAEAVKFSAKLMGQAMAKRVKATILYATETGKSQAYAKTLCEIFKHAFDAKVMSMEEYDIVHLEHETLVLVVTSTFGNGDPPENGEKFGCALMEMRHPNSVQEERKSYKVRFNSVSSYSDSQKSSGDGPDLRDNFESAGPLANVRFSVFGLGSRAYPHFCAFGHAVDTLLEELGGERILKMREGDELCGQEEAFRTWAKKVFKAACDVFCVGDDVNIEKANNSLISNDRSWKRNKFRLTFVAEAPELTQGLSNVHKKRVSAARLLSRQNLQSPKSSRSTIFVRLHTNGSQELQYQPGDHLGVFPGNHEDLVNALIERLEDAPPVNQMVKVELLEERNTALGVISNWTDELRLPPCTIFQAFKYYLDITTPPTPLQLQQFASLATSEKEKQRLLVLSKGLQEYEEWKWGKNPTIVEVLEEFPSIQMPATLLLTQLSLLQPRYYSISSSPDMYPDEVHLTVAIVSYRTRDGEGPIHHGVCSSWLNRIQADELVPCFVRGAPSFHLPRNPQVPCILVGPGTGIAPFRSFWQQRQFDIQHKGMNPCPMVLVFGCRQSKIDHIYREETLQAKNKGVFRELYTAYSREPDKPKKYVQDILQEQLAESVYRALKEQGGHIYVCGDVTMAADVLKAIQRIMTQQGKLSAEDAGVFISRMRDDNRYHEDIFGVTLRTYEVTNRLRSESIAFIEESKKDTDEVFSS

For the compound `CN1CCC[C@H]1CCN1CCCc2cc(NC(=N)c3cccs3)ccc21`, in experiment [1], the 50% inhibitory concentration (IC50) stood at 4.7 µM.
Regarding `CC(C)NCCN1CCCc2cc(NC(=N)c3cccs3)ccc21`, the IC50 in experiment [2] came to 89.4 µM; on Nitric oxide synthase 1 it was 0.267 µM; in experiment [1] it was 27.5 µM.
Regarding `CNCCCN1CCCc2cc(NC(=N)c3cccs3)ccc21`, the IC50 in experiment [2] is greater than 100 µM; in experiment [1] it was greater than 30 µM.
With `CCN(C)CCN1CCCc2cc(NC(=N)c3cccs3)ccc21`, the IC50 in experiment [2] was greater than 100 µM; on Nitric oxide synthase 1, 0.097 µM; in experiment [1] it was 4.5 µM.
With `CN(CCO)CCN1CCCc2cc(NC(=N)c3cccs3)ccc21`, the results for the half-maximal inhibitory concentration (IC50) (in experiment [2]; on Nitric oxide synthase 1) were greater than 100 µM and 0.133 µM, respectively.
With `CNCCN1CCCc2cc(NC(=N)c3cccs3)ccc21`, the IC50 at Nitric oxide synthase 1 was 0.176 µM.
As for `N=C(Nc1ccc2c(c1)CCCN2CCCNCCO)c1cccs1`, the IC50 at Nitric oxide synthase 3 is 39.2 µM; in experiment [2], greater than 100 µM; at Nitric oxide synthase 1, 0.169 µM; in experiment [1], greater than 30 µM.
As for `N=C(Nc1ccc2c(c1)CCCN2CCNCCO)c1cccs1`, the IC50 on Nitric oxide synthase 3 is 32.9 µM; in experiment [2] it was 73 µM; on Nitric oxide synthase 1, 0.115 µM; in experiment [1] it was greater than 30 µM.
On to `CCNCCN1CCCc2cc(NC(=N)c3cccs3)ccc21`, for which the half-maximal inhibitory concentration (IC50) is 46.5 µM on Nitric oxide synthase 3, greater than 100 µM in experiment [2], 0.139 µM at Nitric oxide synthase 1 and greater than 30 µM in experiment [1].
`N=C(Nc1ccc2c(c1)CCCN2C1CCNC1)c1cccs1` (racemic): in experiment [1], the IC50 is greater than 30 µM.

For the origin of these results see ChEMBL document CHEMBL2163286, “1,2,3,4-tetrahydroquinoline-based selective human neuronal nitric oxide synthase (nNOS) inhibitors: lead optimization studies resulting in the identification of N-(1-(2-(methylamino)ethyl)-1,2,3,4-tetrahydroquinolin-6-yl)thiophene-2-carboximidamide as a preclinical development candidate” (J Med Chem, 2012).
